Laboratory results published in US20110318741A1, “BIOMARKERS FOR THE TREATMENT OF PSORIASIS” (priority 2010, published 2011).

Test system: psoriasis lesional skin
Test: Histological analysis (immunohistochemistry, H&E) of skin biopsies from psoriasis patients in a clinical trial
Assay type: in vivo, human
Settings: for CD56 in Epidermis: Biopsy Parameters Median Change (%) / Langerin in Dermis: Biopsy Parameters Median Change (%) / CD11c in Epidermis: Biopsy Parameters Median Change (%) / CD3 in Dermis: Biopsy Parameters Median Change (%) / CD3 in Epidermis: Biopsy Parameters Median Change (%) / Thickness: Biopsy Parameters Median Change (%) / CD11c in Dermis: Biopsy Parameters Median Change (%) / CD56 in Dermis: Biopsy Parameters Median Change (%) / Langerin in Epidermis: Biopsy Parameters Median Change (%): subjects also with PASI values
Procedure: Skin biopsies were evaluated on 20 patients in a clinical trial, where 20 mg of (S)—N-(2-(1-(3-ethoxy-4-methoxyphenyl)-2-(methylsulfonyl)ethyl)-1,3-dioxoisoindolin-4-yl)acetamide was administered b.i.d. to patients with psoriasis. Skin biopsies were done 4 weeks and 12 weeks post-treatment.
The biopsies were subjected to a histological analysis in which response was assessed in H&E stained sections of skin biopsies and after staining frozen sections of skin biopsies with antibodies to keratin 16. CD3, CD11c. ICAM-1. Langerin, CD56, Foxp3, and HLA-DR. This analysis thus included an assessment of epidermal growth/differentiation, skin infiltration by T-cells and DC subsets, presence of regulatory T-cells, and presence of inflammation-regulating molecules in skin lesions.
The pharmacodynamic effects of (S)—N-(2-(1-(3-ethoxy-4-methoxyphenyl)-2-(methylsulfonyl)ethyl)-1,3-dioxoisoindolin-4-yl)acetamide were studied in skin biopsies from subjects treated with the compound in a phase 2, multi-center, open-label study evaluating the safety, tolerability, and efficacy of the compound in recalcitrant psoriasis vulgaris. Skin biopsies were taken from uninvolved and involved skin at baseline, and from involved skin after treatment with (S)—N-(2-(1-(3-ethoxy-4-methoxyphenyl)-2-(methylsulfonyl)ethyl)-1,3-dioxoisoindolin-4-yl)acetamide 20 mg BID after 4 and 12 weeks.
Skin biopsies were evaluated on 20 patients in this trial. The biopsies were analyzed by immunohistochemistry for a set of cellular markers (keratin 16, CD3. CD11c. ICAM-1, Langerin, CD56, Foxp3, and HLA-DR) to assess epidermal growth/differentiation, skin infiltration by T-cells and dendritic cells (DC), presence of regulatory T-cells, and the presence of inflammation-regulating molecules in skin lesions.

Structure (SMILES): CCOc1cc([C@@H](CS(C)(=O)=O)N2C(=O)c3cccc(NC(C)=O)c3C2=O)ccc1OC [(S)—N-(2-(1-(3-ethoxy-4-methoxyphenyl)-2-(methylsulfonyl)ethyl)-1,3-dioxoisoindolin-4-yl)acetamide]
- CD56+ NK cells in the epidermis (20 mg BID): significant reductions
- CD56 in Epidermis: Biopsy Parameters Median Change (%) (Week 4, 20 mg BID, No. 16): −75.6%
- Langerin in Dermis: Biopsy Parameters Median Change (%) (Week 4, 20 mg BID, No. 17): −50.0%
- CD11c in Epidermis: Biopsy Parameters Median Change (%) (Week 4, 20 mg BID, No. 18): −73.1%
- CD3 in Dermis: Biopsy Parameters Median Change (%) (Week 4, 20 mg BID, No. 19): −24.5%
- CD3 in Epidermis: Biopsy Parameters Median Change (%) (Week 4, 20 mg BID, No. 19): −35.0%
- Thickness: Biopsy Parameters Median Change (%) (Week 4, 20 mg BID, No. 19): −22.9%
- CD11c in Dermis: Biopsy Parameters Median Change (%) (Week 4, 20 mg BID, No. 20): −45.8%
- CD56 in Dermis: Biopsy Parameters Median Change (%) (Week 4, 20 mg BID, No. 20): −27.6%
- Langerin in Epidermis: Biopsy Parameters Median Change (%) (Week 4, 20 mg BID, No. 20): 9.49%
- CD3 T cells in Dermis: Median % change from baseline (Week 4, 20 mg b.i.d.): −24.5%
- CD3 T cells in Epidermis: Median % change from baseline (Week 4, 20 mg b.i.d.): −35.0%
- CD11c myeloid DC in Dermis: Median % change from baseline (Week 4, 20 mg b.i.d.): −45.8%
- CD11c myeloid DC in Epidermis: Median % change from baseline (Week 4, 20 mg b.i.d.): −73.1%
- CD56 NK cells in Dermis: Median % change from baseline (Week 4, 20 mg b.i.d.): −27.6%
- CD56 NK cells in Epidermis: Median % change from baseline (Week 4, 20 mg b.i.d.): −75.6%
- Epidermal Thickness: Median % change from baseline (Week 4, 20 mg b.i.d.): −22.9%
- Langerin in Dermis: Median % change from baseline (Week 4, 20 mg b.i.d.): −50.0%
- Langerin in Epidermis: Median % change from baseline (Week 4, 20 mg b.i.d.): 9.5%
- reduction of epidermal CD11c+ infiltrates (Week 4, 20 mg b.i.d.): 73%
- CD56 in Epidermis: Biopsy Parameters Median Change (%) (Week 12, 20 mg BID, No. 12): −77.6%
- Langerin in Dermis: Biopsy Parameters Median Change (%) (Week 12, 20 mg BID, No. 12): −67.0%
- CD11c in Epidermis: Biopsy Parameters Median Change (%) (Week 12, 20 mg BID, No. 13): −97.5%
- CD11c in Dermis: Biopsy Parameters Median Change (%) (Week 12, 20 mg BID, No. 14): −56.0%
- Thickness: Biopsy Parameters Median Change (%) (Week 12, 20 mg BID, No. 14): −34.8%
- CD3 in Dermis: Biopsy Parameters Median Change (%) (Week 12, 20 mg BID, No. 15): −63.1%
- CD3 in Epidermis: Biopsy Parameters Median Change (%) (Week 12, 20 mg BID, No. 15): −56.1%
- CD56 in Dermis: Biopsy Parameters Median Change (%) (Week 12, 20 mg BID, No. 15): −18.2%
- Langerin in Epidermis: Biopsy Parameters Median Change (%) (Week 12, 20 mg BID, No. 15): 41.67%
- CD3 T cells in Dermis: Median % change from baseline (Week 12, 20 mg b.i.d.): −62.0%
- CD3 T cells in Epidermis: Median % change from baseline (Week 12, 20 mg b.i.d.): −47.4%
- CD11c myeloid DC in Dermis: Median % change from baseline (Week 12, 20 mg b.i.d.): −54.6%
- CD11c myeloid DC in Epidermis: Median % change from baseline (Week 12, 20 mg b.i.d.): −88.6%
- CD56 NK cells in Dermis: Median % change from baseline (Week 12, 20 mg b.i.d.): −12.5%
- CD56 NK cells in Epidermis: Median % change from baseline (Week 12, 20 mg b.i.d.): −73.3%
- Epidermal Thickness: Median % change from baseline (Week 12, 20 mg b.i.d.): −34.3%
- Langerin in Dermis: Median % change from baseline (Week 12, 20 mg b.i.d.): −57.9%
- Langerin in Epidermis: Median % change from baseline (Week 12, 20 mg b.i.d.): 17.1%
- reduction of epidermal CD11c+ infiltrates (Week 12, 20 mg b.i.d.): 84%
- cases showing improvement in psoriasis (reduction in epidermal hyperplasia and/or keratin 16 staining) (day 29, of the 20 cases analyzed, 20 mg b.i.d.): 10 cases
- T-cells in biopsies (day 29 and day 85 biopsies, overall reductions not statistically significant): reductions
- median reduction in epidermal thickness (day 85, 20 mg b.i.d.): 34%
- epidermal Langerhan's cells (day 85 biopsies): small increase
- cases showing absence of keratin 16 staining (day 85 biopsies, 20 mg b.i.d.): 5 cases
- cases showing disease improvement (day 85 biopsies, of the 20 cases analyzed, 20 mg b.i.d.): Nine
- CD56+ cells (NK cells or NK-T-cells) (during treatment, between week 4 and week 12): minimally altered
- inflammatory myeloid CD11c+ DCs (TIP-DCs) (epidermis and dermis, week 4 and week 12, 20 mg BID): major reduction
- Langerin in the epidermis (not statistically significant, not elevated in the dermis, 20 mg BID): slightly elevated
- reductions in cellular infiltrates in epidermis and dermis, responders vs non-responders (responders: change in PASI of 75% or more at week 12): greater among responders
- reduction in epidermal thickness (week 4, all measured values of thickness, 20 mg b.i.d.): 23%
- median reduction of dermal CD11c+ DCs (week 4 biopsies, 20 mg b.i.d.): 45%
